Data reported in patent US20230027929A1, “MrgprX2 Antagonists and Uses Thereof” (Dermira, Inc., priority 2019, published 2023).

Target: T1, hMrgpMRGPRX2 (Homo sapiens, UniProt Q96LB1)
T1 construct: expressed in transfected cells
T1 sequence (Q96LB1 1-330): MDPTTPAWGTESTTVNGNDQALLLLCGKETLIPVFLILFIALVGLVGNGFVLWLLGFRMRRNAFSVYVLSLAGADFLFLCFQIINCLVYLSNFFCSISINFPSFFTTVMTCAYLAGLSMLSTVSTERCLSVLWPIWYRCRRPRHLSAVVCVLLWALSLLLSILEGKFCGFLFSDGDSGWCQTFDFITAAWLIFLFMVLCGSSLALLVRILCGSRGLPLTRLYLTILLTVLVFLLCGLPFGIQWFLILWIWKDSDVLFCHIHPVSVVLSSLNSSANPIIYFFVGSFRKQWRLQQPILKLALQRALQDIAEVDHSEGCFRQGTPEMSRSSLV
Test: FLIPR intracellular calcium mobilization, antagonist activity in recombinant hMrgpMRGPRX2 expressing cells
Type: cell-based
Conditions: read-out: Human MrgprX2 Antagonist pIC50 (converted)
Excerpt: Potent and selective hMrgpMRGPRX2 compounds have been generated from compounds identified during a high throughput screening (HTS) campaign and followed up with cycles of structure activity based medicinal chemistry efforts. These compounds were characterized in recombinant hMrgpMRGPRX2 expressing cells for their antagonist activity and the potency was confirmed in the human mast cell line LAD-2, where the target is endogenously expressed. The assays used to determine potencies are functional read-out looking at intracellular calcium mobilization using the FLIPR™ technology. In these FLIPR assays, we test the identified compounds using recombinant cellular systems expressing mouse MrgprB2, mouse MrgprA1, gerbil MrgpMRGPRX2 orthologue, Chinese hamster MrgpMRGPRX2 orthologue and cynomolgus monkey MrgpMRGPRX2 orthologue, respectively for orthologue activity.

SMILES | IC50
CCN(C[C@H](C)O)C(=O)Nc1ccc(-c2ccccc2)cn1 [Compound E195] | 5010 nM
CC(C)C(=O)Nc1cnc(Oc2ccccc2)cn1 [Compound E217, 2-methyl-N-(5-phenoxypyrazin-2-yl)propanamide] | 7940 nM
CC1(C)CC1C(=O)Nc1ccc(-c2cc(F)cc(C#N)c2)cn1 (stereo not shown) [Compound E188] | 50.1 nM
CC1(C)C(C(=O)Nc2ccc(Cl)cn2)C1(C)C [Compound E204] | 1.58 nM
COCCOc1ccc(NC(=O)C2C(C)(C)C2(C)C)nc1 [Compound E071] | 1100 nM
CN(C[C@@H](O)C(F)(F)F)C(=O)Nc1cnc(Oc2cc(F)ccc2F)cn1 [Compound E245] | 8.51 nM
CC1(C)C(C(=O)Nc2ccc(OC3COC3)cn2)C1(C)C [Compound E083] | 1070 nM
CCN(C[C@@H](O)C(F)(F)F)C(=O)Nc1ccc(F)cn1 [Compound E196] | 851 nM
CCN(C[C@@H](O)C(F)(F)F)C(=O)Nc1cnc(Oc2cc(F)ccc2F)cn1 [Compound E241] | 1.7 nM
CC1(C)C(C(=O)Nc2ccc(C3=COCC3)cn2)C1(C)C [Compound E187] | 14.5 nM
CN(C[C@@](C)(O)C(F)(F)F)C(=O)Nc1cnc(Oc2cc(F)cc(F)c2)cn1 [Compound E238] | 45.7 nM
CC1(C)C(C(=O)Nc2ccc(Oc3cc(F)cc(C(N)=O)c3)cn2)C1(C)C [Compound E075] | 501 nM
CC1(C)C(C(=O)Nc2ccc(Oc3ccc(F)c(F)c3)cn2)C1(C)C [Compound E025] | 2.51 nM
Cn1cc(-c2ccc(NC(=O)C3C(C)(C)C3(C)C)nc2)nn1 [Compound E190, 2,2,3,3-tetramethyl-N-[5-(1-methyltriazol-4-yl)-2-pyridyl]cyclopropanecarboxamide] | 631 nM
CC1(C)CC1C(=O)Nc1cnc(-c2cccc(F)c2F)cn1 (stereo not shown) [Compound E229] | 6610 nM
Cc1cnc(NC(=O)C2C(C)(C)C2(C)C)cn1 [Compound E213] | 1580 nM

SMILES | IC50
CC1(C)C(C(=O)Nc2ccc(-c3ccon3)cn2)C1(C)C [Compound E275, N-(5-isoxazol-3-yl-2-pyridyl)-2,2,3,3-tetramethyl-cyclopropanecarboxamide] | 12.3 nM
CN(C[C@@H](O)C(F)(F)F)C(=O)Nc1cnc(Oc2cccc(F)c2F)cn1 [Compound E243] | 58.9 nM
COc1ccc(NC(=O)C2C(C)(C)C2(C)C)nc1 [Compound E212] | 20 nM
CC1(C)C(C(=O)Nc2ccc(C(F)(F)F)cn2)C1(C)C [Compound E205] | 501 nM
CC1(C)C(C(=O)Nc2ccc(-n3cncn3)cn2)C1(C)C [Compound E092] | 8130 nM
CCN(C[C@@H](O)C(F)(F)F)C(=O)Nc1cnc(Oc2cc(F)cc(F)c2)c(C)n1 [Compound E242] | 7410 nM
CCN(C[C@@H](OC)C(F)(F)F)C(=O)Nc1cnc(Oc2ccc(F)cc2F)cn1 [Compound E261] | 380 nM
CCN(C[C@@H](O)C(F)(F)F)C(=O)Nc1cnc(-c2cc(F)ccc2F)cn1 [Compound E237] | 603 nM
CC1(C)C(C(=O)Nc2ccc(-n3cc(F)cn3)cn2)C1(C)C [Compound E087] | 43.7 nM
CCN(C[C@@](C)(O)C(F)(F)F)C(=O)Nc1cnc(Oc2ccc(F)cc2F)cn1 [Compound E258] | 1.55 nM
CCN(C[C@@H](O)C(F)(F)F)C(=O)Nc1ccc(-c2cc(F)cc(F)c2)cn1 [Compound E194] | 214 nM
CCN(C[C@@H](O)C(F)(F)F)C(=O)Nc1cnc(Oc2ccc(F)cc2C#N)cn1 [Compound E254] | 30.9 nM
CC(C)C(=O)Nc1ccc(-c2cccc(C#N)c2)cn1 [Compound E170] | 200 nM
CC1(C)C(C(=O)Nc2ccc(Oc3ccc(C#N)nc3)cn2)C1(C)C [Compound E063] | 1260 nM
CCN(C[C@@H](O)C(F)(F)F)C(=O)Nc1cc(Oc2cccc(F)c2)ncn1 [Compound E291, 1-ethyl-3-[6-(3-fluorophenoxy)pyrimidin-4-yl]-1-[(2R)-3,3,3-trifluoro-2-hydroxy-propyl]urea] | 891 nM
CCN(C[C@H](C)O)C(=O)Nc1cnc(Oc2cc(F)cc(F)c2)cn1 [Compound E235] | 1410 nM

Other lines, results leading:

IC50 | SMILES
398 nM | O=C(Nc1ccc(Oc2cccc(F)c2)cn1)C1(C(F)(F)F)CC1 [Compound E012]
7940 nM | O=C(Nc1ccc(Oc2ccc(F)c(F)c2)cn1)N1CCCC1 [Compound E105]
10000 nM | N#Cc1cc(F)cc(Oc2ccc(NC(=O)C3CC3)nc2)c1 [Compound E020]
8.13 nM | CCN(C[C@@H](O)C(F)(F)F)C(=O)Nc1ccc(Oc2c(F)cccc2F)cn1 [Compound E135]
0.891 nM | CCN(C[C@@H](O)C(F)(F)F)C(=O)Nc1cc(Oc2cccc(F)c2)c(F)cn1 [Compound E161]
316 nM | CC(C)C(=O)Nc1cnc(Oc2cc(F)cc(F)c2)cn1 [Compound E218]
25.1 nM | CCN(C[C@@H](O)C(F)(F)F)C(=O)Nc1cc(Oc2ccc(F)cc2)ccn1 [Compound E155]
5010 nM | CC1(C(=O)Nc2ccc(Oc3ccc(F)c(F)c3)cn2)CCOC1 (stereo not shown) [Compound E036]
57.5 nM | CN(C[C@@H](O)C(F)(F)F)C(=O)Nc1ccc(Oc2ccc(F)c(F)c2)cn1 [Compound E111]
158 nM | Cc1nc(NC(=O)C2CC2(C)C)ccc1Oc1ccc(F)c(F)c1 (stereo not shown) [Compound E054]
724 nM | CCN(C[C@@H](O)C(F)(F)F)C(=O)Nc1cc(Oc2ccc(F)c(F)c2)ncn1 [Compound E289, 3-[6-(3,4-difluorophenoxy)pyrimidin-4-yl]-1-ethyl-1-[(2R)-3,3,3-trifluoro-2-hydroxy-propyl]urea]
2000 nM | O=C(Nc1ccc(Oc2ccc(F)c(F)c2)cn1)C1CCOCC1 [Compound E024]
316 nM | CN(CC(F)(F)F)C(=O)Nc1ccc(Oc2ccc(F)c(F)c2)cn1 [Compound E106]
2290 nM | CCN(C[C@@H](O)C(F)(F)F)S(=O)(=O)Nc1ccc(Oc2ccc(F)c(F)c2)cn1 [Compound E286, 5-(3,4-difluorophenoxy)-2-[[ethyl-[(2R)-3,3,3-trifluoro-2-hydroxy-propyl]sulfamoyl]amino]pyridine]
3980 nM | CC(C)(CO)C(=O)Nc1ccc(Oc2ccc(F)c(F)c2)cn1 [Compound E039]
245 nM | Cc1cnc(NC(=O)N(C)C[C@@H](O)C(F)(F)F)cc1Oc1ccc(F)c(F)c1 [Compound E153]
3.8 nM | CCN(C[C@@H](O)C(F)(F)F)C(=O)Nc1ccc(Oc2ccccc2F)cn1 [Compound E122]
6310 nM | O=C(Nc1ccc(Oc2ccc(F)c(F)c2)cn1)[C@@H]1CCCO1 [Compound E055]
12.6 nM | O=C(Nc1ccc(Oc2ccc(F)c(F)c2)cn1)C1CC12CC2 (stereo not shown) [Compound E044]

IC50 | SMILES
12.6 nM | CC1(C)CC1C(=O)Nc1ccc(-c2cc(F)cc(F)c2)cn1 (stereo not shown) [Compound E180]
6310 nM | CC1(C(=O)Nc2ccc(Oc3cccc(F)c3)cn2)CCOC1 (stereo not shown) [Compound E011]
316 nM | COc1ccc(-c2ccc(NC(=O)C(C)C)nc2)cc1 [Compound E172]
79.4 nM | CC(C)(C)C(=O)Nc1ccc(Oc2ccc(F)c(F)c2)cn1 [Compound E033]
25.1 nM | CC(C)C(=O)Nc1ccc(Oc2cccc(Cl)c2)cn1 [Compound E016]
3160 nM | CC1(C(=O)Nc2ccc(Oc3cccc(F)c3)cn2)CCOCC1 [Compound E006]
2510 nM | C[C@H](O)CN(C)C(=O)Nc1ccc(-c2cc(F)cc(F)c2)cn1 [Compound E191, 3-[5-(3,5-difluorophenyl)-2-pyridyl]-1-[(2S)-2-hydroxypropyl]-1-methyl-urea]
562 nM | NS(=O)(=O)N1CCC[C@H]1C(=O)Nc1ccc(Oc2cc(F)cc(F)c2)cn1 [Compound E283]
25.1 nM | O=C(Nc1ccc(Oc2ccc(F)c(F)c2)cn1)[C@H]1C[C@@H]1C(F)(F)F [Compound E049]
1000 nM | O=C(NCC(O)C(F)(F)F)Nc1ccc(Oc2cc(F)cc(F)c2)cn1 (stereo not shown) [Compound E131]
316 nM | CC(C)C(=O)Nc1ccc(-c2ccccc2F)cn1 [Compound E167]
3980 nM | CC(C)(CO)C(=O)Nc1ccc(Oc2cccc(F)c2)cn1 [Compound E014]
1.58 nM | CN(C[C@@](C)(O)C(F)(F)F)C(=O)Nc1ccc(Oc2cc(F)cc(F)c2)cn1 [Compound E140, 3-[5-(3,5-difluorophenoxy)-2-pyridyl]-1-methyl-1-[(2R)-3,3,3-trifluoro-2-hydroxy-2-methyl-propyl]urea]
2.04 nM | CN(C[C@@](C)(O)C(F)(F)F)C(=O)Nc1ccc(Oc2ccc(F)cc2F)cn1 [Compound E141, 3-[5-(2,4-difluorophenoxy)-2-pyridyl]-1-methyl-1-[(2R)-3,3,3-trifluoro-2-hydroxy-2-methyl-propyl]urea]
468 nM | CCN(C[C@@H](O)C(F)(F)F)C(=O)Nc1ccc(Oc2cccc(C#N)c2F)cn1 [Compound E134]
63.1 nM | CC(C)C(=O)Nc1ccc(Oc2cccc(F)c2)cn1 [Compound E004]
3.98 nM | CC1(C)C[C@@H]1C(=O)Nc1ccc(Oc2ccc(F)c(F)c2)cn1 [Compound E043]
7.94 nM | CC1(C)C[C@H]1C(=O)Nc1ccc(Oc2ccc(F)c(F)c2)cn1 (single isomer, unassigned) [Compound E078]
398 nM | N#C[C@H]1C[C@@H]1C(=O)Nc1ccc(Oc2ccc(F)c(F)c2)cn1 [Compound E050]
